Ends that are not written are not given here.
Experiments:
hPTH-1 receptors [1] = biological target: T1, hPTH-1 receptors (Homo sapiens, UniProt Q03431); test: phospholipase C (PLC) activity in HKRK-B7 cells; assay type: cell-based; parameters: expressed in transfected cells; details: about 1 million hPTH-1 receptors per cell, 1000 nM (FIG. 4)
T1 sequence (Q03431 27-593): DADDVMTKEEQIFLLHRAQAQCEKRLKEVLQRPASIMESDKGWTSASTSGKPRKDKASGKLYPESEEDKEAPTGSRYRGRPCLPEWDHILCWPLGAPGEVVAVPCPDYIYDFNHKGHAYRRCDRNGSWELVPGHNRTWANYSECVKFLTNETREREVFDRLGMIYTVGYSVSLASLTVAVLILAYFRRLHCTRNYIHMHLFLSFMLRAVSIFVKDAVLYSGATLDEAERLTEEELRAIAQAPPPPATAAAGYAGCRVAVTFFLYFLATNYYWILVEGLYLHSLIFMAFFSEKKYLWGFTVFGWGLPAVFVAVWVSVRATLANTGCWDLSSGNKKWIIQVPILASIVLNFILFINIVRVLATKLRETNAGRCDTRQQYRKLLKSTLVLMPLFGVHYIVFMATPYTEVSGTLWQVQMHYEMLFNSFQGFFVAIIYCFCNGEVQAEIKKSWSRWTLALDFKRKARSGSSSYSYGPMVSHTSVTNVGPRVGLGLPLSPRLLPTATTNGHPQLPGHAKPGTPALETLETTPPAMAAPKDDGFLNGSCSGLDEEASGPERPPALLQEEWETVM
Source text: (§1) The following cell lines were used in these studies. HKRK C53 subclones of LLC-PKI porcine renal epithelial cells which stably express human PTH-1 receptors (150,000 receptors/cell). SaOS-2 cells are transformed human osteosarcoma cells which express relatively few (10,000-20,000 per cell) human PTH-1 receptors. HPR2-7 cells are subclones of LLC-PK1 which express approximately 250,000 recombinant human PTH-2 receptors per cell. HKRK-B7 cells are subclones of LLC-PK which stably express approximately 1 million hPTH-1 receptors per cell. HPR2-22 cells are subclones of LLC-PK1 which express 1.5 million recombinant hPTH-2 receptors per cell. The HPR2-27 and HPR2-22 cell lines were created in the same fashion as the HKRK cells but employing instead type 2 PTH receptor cDNA using the transfection technique of (Bringhurst, F. R., et al., Endocrinology 132(5):2090-2098 (1993); Guo, J., et al., Endocrinology 136(9):3884-3891 (1995)).
(§2) PLC was activated by PTH agonists in the presence of 30 mM LiCl at 37° C. for 30 min after 16 hr of labeling with [^3H]myo-inositol (3uCi/ml) in serum-free medium containing 0.1% bovine serum albumin. The reactions were stopped by rapid aspiration and addition of cold 5% TCA. Water-soluble radiolabeled inositol trisphosphate (IP3) was isolated after ether extraction by ion-exchange chromatography (Guo, J., et al., Endocrinology 136(9):3884-3891 (1995)). In experiments involving HEK 293 cells, cells previously transfected with human PTHR cDNA (in the pcDNA1 expression vector HKRK) using Lipofectamine (Gibco BRL) were labeled with [^3H]myo-inositol and assayed as described above, except that total water-soluble [^3H]inositol polyphosphates were collected as a single fraction from the ion-exchange columns.

human PTHRs = biological target: T2, human PTHRs (Homo sapiens, UniProt Q03431); test: PLC activation in COS-7 cells expressing human PTHRs; assay type: cell-based; details: up to 1000 nM
T2 sequence (Q03431 27-593): T1 sequence (Q03431 27-593)
Experimental: (§3) All cells were maintained under 5% CO2 in air in Dulbecco's modified […] containing 7% fetal bovine serum (FBS) and 1% penicillin/streptomycin (GIBCO-BRL, Grand Island, N.Y.). Cells were seeded into 24-well plates two days before assay at a suitable cell density (approximately 2-2.5×10^5 cells/well). DNA transfections in COS/HEK cells were performed 24 hr after plating and inositol radiolabel was added 24 hr thereafter (see below). Cell transfections were performed as previously described (Gardella, T. J., et al., Endocrinology 132(5):2024-2030 (1993)).
as §2

rat PTHRs = biological target: T3, rat PTHRs (Rattus norvegicus, UniProt P25961); test: PLC activation in COS-7 cells expressing rat PTHRs; assay type: cell-based; details: up to 1000 nM
T3 construct: expressed in transfected cells; host or cells: COS-7 cells
T3 sequence (P25961 27-591): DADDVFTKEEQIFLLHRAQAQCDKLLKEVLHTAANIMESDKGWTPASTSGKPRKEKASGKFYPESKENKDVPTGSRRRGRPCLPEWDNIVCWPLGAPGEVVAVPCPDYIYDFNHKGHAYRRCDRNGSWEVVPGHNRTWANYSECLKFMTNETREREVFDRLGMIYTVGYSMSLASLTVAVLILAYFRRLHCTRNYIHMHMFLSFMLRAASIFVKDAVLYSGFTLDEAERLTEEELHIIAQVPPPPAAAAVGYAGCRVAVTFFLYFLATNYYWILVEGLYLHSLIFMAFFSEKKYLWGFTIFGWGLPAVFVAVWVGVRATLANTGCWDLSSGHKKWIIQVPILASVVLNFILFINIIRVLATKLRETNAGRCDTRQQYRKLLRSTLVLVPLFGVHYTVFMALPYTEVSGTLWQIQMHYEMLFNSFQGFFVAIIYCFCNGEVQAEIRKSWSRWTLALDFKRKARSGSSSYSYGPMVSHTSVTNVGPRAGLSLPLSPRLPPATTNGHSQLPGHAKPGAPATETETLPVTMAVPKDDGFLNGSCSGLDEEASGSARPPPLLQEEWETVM
Experimental: as §3, §2

hPTH-1 receptors [2] = biological target: T1, hPTH-1 receptors; test: IP3 formation in HKRK C53 cells; assay type: cell-based; parameters: expressed in transfected cells; details: average level
Source text: as §1
PLC was activated by PTH agonists in the presence of 30 mM LiCl at 37° C. for 30 min after 16 hr of labeling with [^3H]myo-inositol (3uCi/ml) in serum-free medium containing 0.1% bovine serum albumin. The reactions were stopped by rapid aspiration and addition of cold 5% TCA. Water-soluble radiolabeled inositol trisphosphate (IP3) was isolated after ether extraction by ion-exchange chromatography (Guo, J., et al., Endocrinology 136(9):3884-3891 (1995)). […]

hPTH-1 receptors [3] = biological target: T1, hPTH-1 receptors; test: cAMP accumulation in HKRK B28 cells; assay type: cell-based; parameters: expressed in transfected cells; details: average level
Experimental: (§4) Intracellular cAMP accumulation, PLC activation and PTHR binding affinity were measured as previously reported (Bringhurst, F. R., et al., Endocrinology 132(5):2090-2098 (1993); Guo, J., et al., Endocrinology 136(9):3884-3891 (1995)). Intracellular cAMP accumulation was measured in extracts of cells that were exposed to human PTH peptides in the presence of isobutylmethyxanthine (IBMX, 1 mM) at 37° C. for 15 min. After terminating the reactions by aspiration and freezing in liquid nitrogen, cell monolayers were extracted with 50 mM HCl and cAMP was measured using a radioimmunoassay kit (Dupont-New England Nuclear, Boston, Mass.).

hPTH-1 receptors [4] = biological target: T1, hPTH-1 receptors; test: radioligand binding to HKRK C53 cells; parameters: expressed in transfected cells; details: average level
Source text: as §1
(§5) Radioligand competition binding assays were performed at 2-8° C. for 6 hr using ^125I-[Nle^8,21]rat PTH-(1-34) (100,000 cpm/well) in the presence or absence of non-radioactive hPTH-(1-34) analogs. Cell layers were washed three times before solubilization for determination of cell-associated radioactivity.

hPTH-1 receptors [5] = biological target: T1, hPTH-1 receptors; test: radioligand competition binding to HKRK B28 cells; parameters: expressed in transfected cells; details: HKRK B28 cells; average level
Experimental: as §5

hPTH-2 receptors [6] = biological target: T4, hPTH-2 receptors (Homo sapiens, UniProt P49190); test: cAMP accumulation in HPR2-22 cells; assay type: cell-based; details: average level
T4 construct: expressed in transfected cells
T4 sequence (P49190 25-550): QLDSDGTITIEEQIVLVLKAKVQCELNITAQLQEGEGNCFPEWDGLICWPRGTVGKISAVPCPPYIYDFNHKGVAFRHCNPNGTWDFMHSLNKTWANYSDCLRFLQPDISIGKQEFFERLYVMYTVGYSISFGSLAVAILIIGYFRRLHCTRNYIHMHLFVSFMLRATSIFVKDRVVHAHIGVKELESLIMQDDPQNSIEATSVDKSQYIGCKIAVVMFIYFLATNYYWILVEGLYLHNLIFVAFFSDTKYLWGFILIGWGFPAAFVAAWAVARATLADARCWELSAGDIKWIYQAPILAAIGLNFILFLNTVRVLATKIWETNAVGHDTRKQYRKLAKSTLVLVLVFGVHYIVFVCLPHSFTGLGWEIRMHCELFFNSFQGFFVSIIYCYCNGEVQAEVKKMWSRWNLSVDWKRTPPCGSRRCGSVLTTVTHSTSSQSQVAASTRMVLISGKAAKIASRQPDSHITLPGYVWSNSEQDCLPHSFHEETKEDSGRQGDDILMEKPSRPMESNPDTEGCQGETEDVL
Source text: as §1, with “The HPR2-27 and HPR2-22 cell lines were created in the same fashion as the HKRK cells but employing instead type 2 PTH receptor cDNA using the transfection technique of (Bringhurst, F. R., et al., Endocrinology 132(5):2090-2098 (1993); Guo, J., et al., Endocrinology 136(9):3884-3891 (1995)).” left out
as §4

hPTH-2 receptors [7] = biological target: T4, hPTH-2 receptors; test: radioligand competition binding to HPR2-7 cells; details: average level
Experimental: as §5

hPTH-1 receptors [8] = biological target: T1, hPTH-1 receptors; test: cAMP accumulation (adenylyl cyclase activation) in HKRK C53 cells; assay type: cell-based; parameters: expressed in transfected cells; details: HKRK C53 cells; average level
Source text: as §1, with “HKRK-B7 cells are subclones of LLC-PK which stably express approximately 1 million hPTH-1 receptors per cell. HPR2-22 cells are subclones of LLC-PK1 which express 1.5 million recombinant hPTH-2 receptors per cell.” left out
as §4

hPTH-2 receptors [9] = biological target: T4, hPTH-2 receptors; test: cAMP measurements in clonal LLC-PK1 cells (HPR2-7); assay type: cell-based; details: HPR2-7 cells; average level
Source text: as §1, with “HKRK-B7 cells are subclones of LLC-PK which stably express approximately 1 million hPTH-1 receptors per cell. HPR2-22 cells are subclones of LLC-PK1 which express 1.5 million recombinant hPTH-2 receptors per cell.” left out
as §4

Compound	activation of PLC (hPTH-1 receptors [1])	activation of PLC (human PTHRs)	activation of PLC (rat PTHRs)	IP3 formation in the presence of maximal concentrations of peptide (hPTH-1 receptors [2]) [cpm/well]	cAMP accumulation in the presence of maximal concentrations of peptide (hPTH-1 receptors [3]) [pmoles/well/15 min]	binding in the presence of maximal concentrations of peptide (hPTH-1 receptors [4]) [cpm/well]	binding in the presence of maximal concentrations of peptide (hPTH-1 receptors [5])	cAMP accumulation in the presence of maximal concentrations of peptide (hPTH-2 receptors [6]) [pmoles/well/15 min]	binding in the presence of maximal concentrations of peptide (hPTH-2 receptors [7]) [cpm/well]	cAMP accumulation in the presence of maximal concentrations of peptide (hPTH-1 receptors [8]) [pmoles/well/15 min]	cAMP accumulation in the presence of maximal concentrations of peptide (hPTH-2 receptors [9]) [pmoles/well/15 min]
hPTH-(3-34): N-truncated human PTH peptide, residues 3-34 (SEIQLMHNLGKHLNSMERVEWLRKKLQDVHNF-NH2; UniProt P01270 34-65, looked up, fragment)	did not activate PLC	did not activate PLC	did not activate PLC	–	–	–	–	–	–	–	–
CC[C@H](C)[C@H](NC(=O)[C@H](CCC(=O)O)NC(=O)[C@H](CO)NC(=O)[C@@H](NC(=O)[C@@H](N)CO)C(C)C)C(=O)N[C@@H](CCC(N)=O)C(=O)N[C@@H](CC(C)C)C(=O)N[C@@H](CCSC)C(=O)N[C@@H](Cc1c[nH]cn1)C(=O)N[C@@H](CC(N)=O)C(=O)N[C@@H](CC(C)C)C(=O)NCC(=O)N[C@@H](CCCCN)C(=O)N[C@@H](Cc1c[nH]cn1)C(=O)N[C@@H](CC(C)C)C(=O)N[C@@H](CC(N)=O)C(=O)N[C@@H](CO)C(=O)N[C@@H](CCSC)C(=O)N[C@@H](CCC(=O)O)C(=O)N[C@@H](CCCNC(=N)N)C(=O)N[C@H](C(=O)N[C@@H](CCC(=O)O)C(=O)N[C@@H](Cc1c[nH]c2ccccc12)C(=O)N[C@@H](CC(C)C)C(=O)N[C@@H](CCCNC(=N)N)C(=O)N[C@@H](CCCCN)C(=O)N[C@@H](CCCCN)C(=O)N[C@@H](CC(C)C)C(=O)N[C@@H](CCC(N)=O)C(=O)N[C@@H](CC(=O)O)C(=O)N[C@H](C(=O)N[C@@H](Cc1c[nH]cn1)C(=O)N[C@@H](CC(N)=O)C(=O)N[C@@H](Cc1ccccc1)C(N)=O)C(C)C)C(C)C [hPTH(1-34)NH2]	fill agonists	–	–	1908±251	337±55	956±135	16,137±919 cpm/well	286±8	4541±386	207±37	133±14

Reference: US6537965B1, “Amino-terminal modified parathyroid hormone (PTH) analogs” (The General Hospital Corporation, priority 1998, dated 2003)
